# Source: publication PMC4559766 (Scientific Reports, 2015)
# “And” between values parts separate entries of the source, which are not always exact repeats. Equal values may be shown once.
# What was measured:
# [1] = Pharmacokinetics in BALB/c mice after intravenous injection
# Experimental: Blood samples were collected by eye bleed from three mice at per time point prior to dosing and from 0.5 to 24 hours postdosing, and the plasma portion was analyzed by using an electrospray ionization, LC/MS/MS method described previously[48]. […] Tri (2-carboxyethyl) phosphine hydrochloride (TCEP) was used as a reducing agent to enhance peptide recovery and was added to all samples at a final concentration of 2 mM. After removing the plasma proteins through adding acetonitrile and centrifugation, the supernatant was transferred to another 96-well plate. Samples were analyzed by LC/MS/MS. Pharmacokinetic parameters were fitted to a two-compartment elimination model, and drug exposure (AUC), elimination half-life (t1⁄2), volume of distribution (Vd) and the clearance (CL) were calculated using WinNonlin Ver.
# [2] = tested on: human mammary non-tumorigenic epithelial cells MCF10A; test: Proliferation of non-tumorigenic epithelial cells MCF10A (Cell Counting Kit-8); format: cell-based; conditions: 20–900 nM, 48 hours
# Experimental: (§1) Du145, Raji, K562, Eca109, HeLa, MCF-7, MDA-MB-231 cells or non-tumorigenic epithelial cells MCF10A and HUVEC cells in logarithmic growth phase were respectively seeded into 96-well plates with the number of 8000 cells per well and incubated for 24 hours. […] The cells were counted with Cell Counting Kit-8. The IC50 was calculated using SPSS 17.0-Logit.
# [3] = molecular target: T1, recombinant human TNFRI (hTNFRI) (Homo sapiens, UniProt P19438); test: SPR binding affinity to hTNFR I (BIAcore 3000); conditions: SPR and ITC
# T1 construct: purchased Sino Biological Inc
# T1 sequence (P19438 30-211 limits assumed): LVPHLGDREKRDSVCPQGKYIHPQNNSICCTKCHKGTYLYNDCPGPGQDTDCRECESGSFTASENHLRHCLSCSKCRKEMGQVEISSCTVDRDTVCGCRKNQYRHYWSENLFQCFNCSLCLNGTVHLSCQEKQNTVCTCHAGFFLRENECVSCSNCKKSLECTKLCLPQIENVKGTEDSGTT
# Source text: (§2) BIAcore kinetic evaluation Ver. 4.1 software and Microcal ORIGIN Ver. 5.0 software were respectively used to determine the dissociation constant (KD).
# Du145 cells [4] = test: Cell cycle of Du145 cells, PI single staining-flow cytometry; format: cell-based, human; conditions: 20 nM, 48 hours
# Experimental: (§3) Du145 cells in logarithmic growth phase were seeded into 6-well plates with number of 3 × 10^5 cells per well.
# Du145 transplanted tumor [5] = test: Microvessel density of removed tumors (anti-CD31 immunohistochemistry, Weidner method); format: in vivo, BALB/c-nu/nu nude mice; conditions: tumors removed after 4 weeks of administration, anti-CD31, n = 6
# Experimental: (§4) Four weeks after administration, the mice were executed, and the tumors of different groups were removed and fixed with 10% neutral formalin or 2.5% glutaraldehyde. The fixed tumor tissue slides were subjected to Hematoxylin-eosin (HE) staining, immunohistochemistry in which anti-CD31 antibody and biotin-labeled IgG were respectively used as the first and second antibody, and TEM analysis. The microvessel densitied (MVD) in different tumor tissues was calculated using the Weidner method.
# Du145 transplanted tumor [6] = test: TEM of removed tumors, cells with typical apoptosis characteristic; format: in vivo, BALB/c-nu/nu nude mice; conditions: TEM of tumors removed after 4 weeks of administration
# Experimental: as §4
# [7] = Blood biochemical indexes of liver and kidney function in tumor-bearing nude mice; conditions: serum at end of 4 weeks of administration, n = 6
# Experimental: The blood was collected and centrifuged at the end of administration for 4 weeks. The serum was placed into eppendorf (EP) tube and immediately sent to the First Affiliated Hospital of Jinan University where several tests closely related to liver/kidney function were performed, and the blood biochemical indexes AST, ALT, AST/ALT, ALB, GLB, ALB/GLB, DBILI, IBILI, TBILI, BUN and CREA were obtained.
# Du145 cells [8] = test: Apoptosis of Du145 cells, Annexin V-FITC/PI double staining-flow cytometry; format: cell-based, human
# Experimental: as §3
# [9] = molecular target: T2, human TNFRI of ML-la cells (Homo sapiens, UniProt P19438); test: Competition receptor binding assay, [125I]TNF α displacement from TNFRI; set-up: unit not given beside the values
# T2 construct: ML-la cells (a human myelomonoblastic leukemia cell line, 1 × 10^6 cells/well) were preincubated with either anti-p60 antibody or anti-p80 antibody; endogenous in cells; host or cells: ML-la (ML-1a) human myelomonoblastic leukemia cells
# T2 sequence (P19438 30-455): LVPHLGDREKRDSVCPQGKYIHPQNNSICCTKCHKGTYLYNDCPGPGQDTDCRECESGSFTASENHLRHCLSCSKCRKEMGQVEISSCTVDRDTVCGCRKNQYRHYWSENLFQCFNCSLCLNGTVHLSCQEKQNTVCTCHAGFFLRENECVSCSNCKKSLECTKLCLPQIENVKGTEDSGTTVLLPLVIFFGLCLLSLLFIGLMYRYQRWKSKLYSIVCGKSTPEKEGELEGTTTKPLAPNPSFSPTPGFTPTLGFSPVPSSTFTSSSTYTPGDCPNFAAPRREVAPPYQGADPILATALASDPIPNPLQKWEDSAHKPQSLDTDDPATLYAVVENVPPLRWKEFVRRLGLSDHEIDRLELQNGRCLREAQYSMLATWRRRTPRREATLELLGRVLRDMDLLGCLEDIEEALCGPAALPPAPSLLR
# Experimental: Free iodine was removed by gel filtration on a G-25 column equilibrated with phosphate-buffered saline containing 0.1% gelatin. […] Thereafter cells were washed three times with 150 μl of ice-cold phosphate-buffered saline containing 0.1% bovine serum albumin. Then each well was cut from the plate with a scissors, and cell-bound radioactivity was determined by an Apec-Series […] (ICN Biomedicals, Inc., Costa Mesa, CA)[51].
# Du145 transplanted tumor [10] = test: Subcutaneous Du145 transplanted tumor in nude mice; format: in vivo, BALB/c-nu/nu nude mice; conditions: tail vein once a day for 4 weeks; 0.1 ml of 40 nM RMP16 or P16, estramustine 60 mg/kg; by average tumor weight versus NaCl group; n = 6
# Experimental: Thirty male 4-week-old BALB/c-nu/nu nude mice (17–19 g), were divided into five groups. CK group (blank control) was the mice which were not inoculated Du145 cells, and the remaining four groups received inoculation of Du145 cells. 0.2 ml of Du145 cells suspension with the concentration of 1.5 × 10^7 cells/ml was injected subcutaneously into the right side of back of nude mice. […] The weights and volumes of tumors in different groups were measured once every four days, and tumor growth curves for each group were plotted.
# [11] = tested on: chick chorioallantoic membrane; test: Chick chorioallantoic membrane model of angiogenesis; format: in vivo; conditions: 72 hours at 37 °C
# Experimental: Thirty fertilized chick embryos were randomly divided into five groups and incubated in the thermostatic incubator at 37 °C for six days (blunt end up). Drill a small window about 1 cm × 1 cm on the eggshell on the gas chamber side of chick embryo, meanwhile, also drill a small hole at the gas chamber, so that an artificial gas chamber was formed at the window. After removing the shell and shell membrane, the chicken chorioallantoic membrane (CAM) was exposed. […] The window was sealed with transparent tape, and chick embryos were incubated at 37 °C for 72 hours in thermostatic incubator.
# HUVEC cells = test: Proliferation inhibition of HUVEC cells (Cell Counting Kit-8); format: cell-based, human; conditions: 20 nM, 48 hours
# Experimental: as §1
# Factor Xa = test: In vitro factor Xa enzyme digestion half-life; format: in vitro ADME; conditions: FXa 0.112 unit, 37 °C, 0-48 hours, HPLC-ESI-MS
# Experimental: FXa (0.112 unit) were added into the mixture. After being thoroughly mixed, the mixture was divided into six aliquots to six PCR tubes and hydrolyzed at 37 °C in dark for 48 hours. Samples were respectively obtained at different time points (0, 12, 24, 36 and 48 hours) and each of samples was boiled for 5 minutes to quench the reaction and centrifuged.
# [12] = molecular target: T3, recombinant human TNFRII (hTNFRII) (Homo sapiens, UniProt P20333); test: SPR binding affinity to hTNFR II (BIAcore 3000); conditions: SPR and ITC
# T3 construct: purchased Sino Biological Inc
# T3 sequence (P20333 23-257 limits assumed): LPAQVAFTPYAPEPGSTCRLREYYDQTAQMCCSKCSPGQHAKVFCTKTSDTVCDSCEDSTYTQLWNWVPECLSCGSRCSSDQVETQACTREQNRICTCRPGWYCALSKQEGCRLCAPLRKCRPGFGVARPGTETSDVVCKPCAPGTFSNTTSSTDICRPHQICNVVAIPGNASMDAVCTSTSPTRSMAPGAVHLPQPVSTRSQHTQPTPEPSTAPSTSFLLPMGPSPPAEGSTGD
# Source text: as §2
# [13] = BALB/c, mouse, plasma, iv, 5 mg/kg
compound,measurement,setting,value
CC[C@H](C)[C@H](NC(=O)[C@H](CCCNC(=N)N)NC(=O)[C@H](CO)NC(=O)[C@@H](NC(=O)[C@@H](NC(=O)[C@H](Cc1c[nH]cn1)NC(=O)[C@@H](NC(=O)[C@H](CC(C)C)NC(=O)[C@H](CC(C)C)NC(=O)[C@H](CCCNC(=N)N)NC(=O)CNC(=O)[C@H](CCC(=O)O)NC(=O)[C@@H](NC(=O)[C@H](Cc1c[nH]c2ccccc12)NC(=O)[C@H](CO)NC(=O)[C@H](CO)NC(=O)[C@@H]1CCCN1C(=O)[C@H](CCCNC(=N)N)NC(=O)[C@H](CCC(N)=O)NC(=O)[C@H](Cc1c[nH]c2ccccc12)NC(=O)[C@@H](N)CCSC)[C@@H](C)CC)[C@@H](C)O)[C@@H](C)O)[C@@H](C)CC)C(=O)N[C@@H](C)C(=O)N[C@H](C(=O)N[C@@H](CO)C(=O)N[C@@H](Cc1ccc(O)cc1)C(=O)N[C@@H](CCC(N)=O)C(=O)N[C@H](C(=O)N[C@@H](CCCCN)C(=O)N[C@H](C(=O)N[C@@H](CC(N)=O)C(=O)N[C@@H](CC(C)C)C(=O)N[C@@H](CC(C)C)C(=O)O)C(C)C)[C@@H](C)O)C(C)C [RMP16],AUC,[1]; [13],1360 µg·h/mL
same,Vd,[1]; [13],0.0695 L/kg
same,clearance,[1]; [13],3.68 mL/h/kg
same,half-life,[1]; [13],13.1 h
same,half-life in mice,"[1]; in mice, as stated in abstract",13.11 h
same,effect on proliferation of MCF10A cells,[2],not significant effect
same,binding affinity for hTNFRI higher than that for hTNFRII,[3],~410 times
same,bound less strongly to hTNFRI than did TNF α,[3],~4.5 times
same,increase of Du145 cells remaining in G0/G1 phase,Du145 cells [4],13.1%
same,reduction of Du145 cells remaining in S phase and G2/M phase,Du145 cells [4],12.9%
same,microvessel density (MVD),Du145 transplanted tumor [5],6.4 ± 0.62
same,percent of the tumor cells with typical apoptosis characteristic,Du145 transplanted tumor [6],about 79.6%
same,ALB,[7],17.2 ± 0.2 g/L
same,ALT,[7],100.5 ± 20.5 U/L
same,AST,[7],154 ± 28 U/L
same,CREA,[7],10.5 ± 0.5 µM
same,DBILI,[7],3 ± 0.7 µM
same,GLB,[7],41.7 ± 1 g/L
same,IBILI,[7],9.25 ± 0.55 µM
same,TBILI,[7],12.25 ± 0.15 µM
same,increase of apoptosis rate for Du145 cells,"Du145 cells [8]; 20 nM, 48 h, Annexin V-FITC/PI flow cytometry, versus PBS",14.21%
same,cell pro-apoptotic effect after TNFRI blocking,Du145 cells [8]; Du145 cells pre-incubated with 100 nM H398 (TNFRI-selective inhibitor) for 30 minutes at 37 °C before 20 nM RMP16,disappeared
same,IC50 of displacing [125I]TNF α from TNFRI as multiple of that from TNFRII,[9],1/400
same,tumor inhibition rate,Du145 transplanted tumor [10],~80% and 78.11%
same,"vessel branch points, dose of 2 μg","[11]; 2 μg on filter membrane, n = 6",28.02 ± 1.37
same,"inhibition rate of angiogenesis, 2 μg","[11]; 2 μg on filter membrane, versus NaCl group",54.13 ± 5.13%
same,"vessel branch points, dose of 4 μg","[11]; 4 μg on filter membrane, n = 6",12.31 ± 2.95
same,"inhibition rate of angiogenesis, 4 μg","[11]; 4 μg on filter membrane, versus NaCl group",79.94 ± 4.64%
same,effect on proliferation of HUVEC,HUVEC cells,significantly inhibited the proliferation
same,factor Xa enzyme digestion half-life in the presence of HSA,Factor Xa; 10 μM peptide in PBS with 2 μM HSA,15.83 h
same,half-life at 10 μM,"Factor Xa; factor Xa (FXa) enzyme digestion in PBS without HSA, 10 μM peptide in PBS without HSA, read-out: factor Xa enzyme digestion half-life in the absence of HSA (converted)",9.72 h
same,bound less strongly to hTNFRII than did TNF α,[12],~6600 times
